# Assay results as given in PMC2694132 (Cancer research, 2009).
# Numbering of substitutions follows the chain as printed.
# Key:
# Assay type in all cases: in vitro ADME
# UGT1A3 = molecular target: T1, UGT1A3 (Homo sapiens, UniProt P35503); assay: SAHA glucuronidation, UGT1A3-overexpressing HEK293 cell homogenate
# T1 sequence (P35503 29-534): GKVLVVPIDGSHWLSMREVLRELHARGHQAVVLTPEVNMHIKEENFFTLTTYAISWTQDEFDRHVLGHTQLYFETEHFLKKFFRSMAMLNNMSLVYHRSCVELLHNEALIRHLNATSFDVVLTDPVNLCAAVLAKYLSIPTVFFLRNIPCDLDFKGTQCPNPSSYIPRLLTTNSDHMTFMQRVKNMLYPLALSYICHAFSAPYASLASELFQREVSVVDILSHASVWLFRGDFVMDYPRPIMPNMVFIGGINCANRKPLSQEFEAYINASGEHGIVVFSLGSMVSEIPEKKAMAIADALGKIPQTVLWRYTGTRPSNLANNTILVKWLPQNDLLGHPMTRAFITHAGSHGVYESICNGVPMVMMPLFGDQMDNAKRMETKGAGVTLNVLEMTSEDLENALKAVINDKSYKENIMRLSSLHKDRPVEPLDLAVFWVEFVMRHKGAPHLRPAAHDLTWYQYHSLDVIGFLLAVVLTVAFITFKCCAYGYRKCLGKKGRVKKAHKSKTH
# UGT2B10 = molecular target: T2, UGT2B10 (Homo sapiens, UniProt P36537); assay: SAHA glucuronidation screen, UGT2B10-overexpressing cell homogenate; details: 400 μg UGT-overexpressing cell homogenate, 1-h incubation
# T2 sequence (P36537 24-528): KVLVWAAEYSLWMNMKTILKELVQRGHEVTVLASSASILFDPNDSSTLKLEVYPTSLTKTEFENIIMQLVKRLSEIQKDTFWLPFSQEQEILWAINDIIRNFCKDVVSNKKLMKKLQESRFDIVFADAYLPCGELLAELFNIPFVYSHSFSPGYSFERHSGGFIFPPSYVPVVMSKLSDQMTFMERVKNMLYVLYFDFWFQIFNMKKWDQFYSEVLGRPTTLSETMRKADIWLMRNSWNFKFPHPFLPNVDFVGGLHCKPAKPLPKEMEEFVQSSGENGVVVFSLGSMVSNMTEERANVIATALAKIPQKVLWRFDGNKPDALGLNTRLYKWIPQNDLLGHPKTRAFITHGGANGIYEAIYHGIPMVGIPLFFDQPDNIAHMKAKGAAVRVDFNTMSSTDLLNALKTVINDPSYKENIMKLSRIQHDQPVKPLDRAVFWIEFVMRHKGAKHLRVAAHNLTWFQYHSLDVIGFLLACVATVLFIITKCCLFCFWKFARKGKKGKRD
# UGT1A10 = molecular target: T3, UGT1A10 (Homo sapiens, UniProt Q9HAW8); assay: SAHA glucuronidation, wild-type UGT1A10
# T3 sequence (Q9HAW8 26-530): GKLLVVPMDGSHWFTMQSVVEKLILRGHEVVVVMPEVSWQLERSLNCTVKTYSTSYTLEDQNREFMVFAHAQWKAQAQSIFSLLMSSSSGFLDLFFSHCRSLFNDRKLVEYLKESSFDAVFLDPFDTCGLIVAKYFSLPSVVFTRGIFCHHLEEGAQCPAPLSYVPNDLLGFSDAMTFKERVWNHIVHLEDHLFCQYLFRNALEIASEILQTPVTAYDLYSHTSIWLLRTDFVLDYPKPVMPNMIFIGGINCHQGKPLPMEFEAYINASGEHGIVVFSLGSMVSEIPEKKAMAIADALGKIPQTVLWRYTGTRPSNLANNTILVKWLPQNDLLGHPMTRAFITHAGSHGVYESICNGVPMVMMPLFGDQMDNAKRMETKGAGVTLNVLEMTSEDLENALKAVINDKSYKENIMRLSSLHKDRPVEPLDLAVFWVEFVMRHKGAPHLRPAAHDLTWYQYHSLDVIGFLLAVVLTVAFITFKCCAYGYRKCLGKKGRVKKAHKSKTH
# [1] = molecular target: T4, UGT1A8*2 (UGT1A8p.Ala173Gly) (Homo sapiens, UniProt Q9HAW9, A173G); assay: SAHA glucuronidation, UGT1A8*2 variant cell homogenate
# T4 sequence (Q9HAW9 26-530 A173G): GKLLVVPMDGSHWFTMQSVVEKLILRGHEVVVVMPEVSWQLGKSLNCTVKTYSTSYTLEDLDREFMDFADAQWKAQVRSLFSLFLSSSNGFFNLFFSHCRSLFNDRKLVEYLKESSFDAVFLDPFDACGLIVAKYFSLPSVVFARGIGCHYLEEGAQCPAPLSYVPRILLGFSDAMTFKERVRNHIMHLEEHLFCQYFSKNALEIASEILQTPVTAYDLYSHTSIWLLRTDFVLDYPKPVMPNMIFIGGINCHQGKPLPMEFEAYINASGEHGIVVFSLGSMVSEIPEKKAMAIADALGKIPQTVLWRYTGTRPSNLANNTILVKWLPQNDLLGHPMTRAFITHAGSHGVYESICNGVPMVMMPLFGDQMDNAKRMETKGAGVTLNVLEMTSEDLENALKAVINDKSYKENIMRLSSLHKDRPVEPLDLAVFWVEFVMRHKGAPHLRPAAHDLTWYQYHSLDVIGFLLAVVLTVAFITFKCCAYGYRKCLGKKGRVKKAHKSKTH
# UGT1A8 = molecular target: T5, UGT1A8 (Homo sapiens, UniProt Q9HAW9); assay: SAHA glucuronidation, wild-type UGT1A8
# T5 sequence (Q9HAW9 26-530): T4 sequence (Q9HAW9 26-530 A173G) with G148A
# [2] = 400 μg UGT-overexpressing cell homogenate, 1-h incubation
compound,measurement,setting,value
"O=C(CCCCCCC(=O)Nc1ccccc1)NO [SAHA, Suberoylanilide hydroxamic acid]",glucuronidation against SAHA (screen),UGT1A3; [2],high levels of glucuronidation
same,Km at 1 h,"UGT1A3; human, UGT1A3-overexpressing HEK293 cell homogenate, pH 7.5",3400 ± 800 µM
same,glucuronidation activity against SAHA (screen),UGT2B10,No detectable glucuronidation activity
same,glucuronidation against SAHA (screen),UGT1A10; [2],high levels of glucuronidation
same,KM of UGT1A10 higher than that observed for UGT2B17,UGT1A10; against SAHA,3 fold
same,Km at 1 h,"UGT1A10; human, pH 7.5",1000 ± 100 µM
same,decrease in glucuronidation activity against SAHA compared with wild-type UGT1A8,"[1]; UGT1A8p.Ala173Gly variant, P < 0.005",3 fold
same,Km at 1 h,"[1]; human, UGT1A8*2 variant-overexpressing cell homogenate, pH 7.5",3000 ± 700 µM
same,glucuronidation against SAHA (screen),UGT1A8; [2],high levels of glucuronidation
same,Km at 1 h,"UGT1A8; human, pH 7.5",1900 ± 100 µM
